ChEMBL document CHEMBL5143559, “Discovery of highly potent SARS-CoV-2 Mpro inhibitors based on benzoisothiazolone scaffold” (Bioorg Med Chem Lett, 2022)
The source made the active and inactive calls. The rule behind the calls is not given here.

Assays:
[1] = biological target: T1, Replicase polyprotein 1ab (Severe acute respiratory syndrome coronavirus 2, UniProt P0DTD1); assay: Inhibition of SARS-CoV-2 main protease using Mca-AVLQSGFRK(Dnp)K as substrate preincubated with enzyme for 10 mins followed by substrate addition and measured every 30 secs for 10 mins by fluorescence based analysis
[2] = biological target: Replicase polyprotein 1ab (Severe acute respiratory syndrome coronavirus 2) (UniProt P0DTD1); assay: Inhibition of SARS-CoV-2 main protease using Mca-AVLQSGFRK(Dnp)K as substrate at 40 uM preincubated with enzyme for 10 mins followed by substrate addition and measured every 30 secs for 10 mins by fluorescence based analysis; details: time 20.0 min
[3] = biological target: T1, Replicase polyprotein 1ab; assay: Inhibition of SARS-CoV-2 RdRp
[4] = biological target: Replicase polyprotein 1ab (Severe acute respiratory syndrome coronavirus 2) (UniProt P0DTD1); assay: Irreversible inhibition of SARS-CoV-2 main protease by fast dilution experiment based analysis

Structure (SMILES) | IC50 [1] [nM] | inhibition [2] [%] | IC50 [3] [nM] | inhibition [4]
O=C(Cn1sc2cc(F)ccc2c1=O)NC1CCCC1 | 400 | 95.5 |  | 
O=c1c2ccc(F)cc2sn1CCCc1ccccc1 | 540 | 102 |  | 
Nc1ccc2sn(CC(=O)Nc3ccccc3)c(=O)c2c1 | 416 | 99.8 |  | 
O=C(Cn1sc2ccc(C(F)(F)F)cc2c1=O)Nc1ccccc1 | 393 | 99.7 |  | 
COc1cccc2c(=O)n(CC(=O)Nc3ccccc3)sc12 |  | -6.8 |  | 
O=C(Cn1oc2cc(F)ccc2c1=O)Nc1ccccc1 |  | 7 |  | 
COc1cccc(NC(=O)Cn2sc3cc(F)ccc3c2=O)c1 | 150 | 101 |  | 
O=C(Cn1sc2cc(F)ccc2c1=O)Nc1cc(Cl)cc(Cl)c1 | 190 | 108 |  | 
Nc1ccc2c(=O)n(CC(=O)Nc3ccccc3)sc2c1 | 443 | 99.7 |  | 
CCNC(=O)Cn1sc2cc(F)ccc2c1=O | 380 | 102 |  | 
O=C(Cn1sc2cccc(C(F)(F)F)c2c1=O)Nc1ccccc1 | 224 | 99.7 |  | 
O=C(Cn1[nH]c2cc(F)ccc2c1=O)Nc1ccccc1 |  | 26.3 |  | 
CC(C)(C)OC(=O)Cn1sc2cc(F)ccc2c1=O | 220 | 104 |  | 
O=C(O)Cn1sc2cc(F)ccc2c1=O | 1570 | 98.4 |  | 
CC(C)(C)c1ccc(NC(=O)Cn2sc3cc(F)ccc3c2=O)cc1 | 310 | 99.9 |  | 
Nc1cccc2c(=O)n(CC(=O)Nc3ccccc3)sc12 | 11000 | 58.8 |  | 
O=C(CN1C(=O)c2ccc(F)cc2S1(=O)=O)Nc1ccccc1 |  | 18.3 |  | 
O=C(Cn1sc2cc(F)ccc2c1=O)Nc1cccc(Cl)c1 | 140 | 95.5 |  | 
O=C(Cn1sc2cc(F)ccc2c1=O)NC1CCCCC1 | 160 | 97.7 | 7900 | 
O=C(Cn1sc2cc(F)ccc2c1=O)Nc1cccc(C(F)(F)F)c1 | 250 | 98.9 |  | 
COc1ccc2c(=O)n(CC(=O)Nc3ccccc3)sc2c1 | 287 | 99.7 |  | 
COc1cccc2sn(CC(=O)Nc3ccccc3)c(=O)c12 | 334 | 99.6 |  | 

Structure (SMILES) | IC50 [1] [nM] | inhibition [2] [%] | IC50 [3] [nM] | inhibition [4]
O=C(Nc1ccccc1)n1sc2cc(F)ccc2c1=O | 680 | 102 | 15300 | 
O=C(Cn1sc2cc(F)ccc2c1=O)Nc1ccc(Cl)cc1 | 150 | 95.7 |  | 
O=C(Cn1sc2cc(F)ccc2c1=O)Nc1ccccc1C(F)(F)F | 335 | 105 |  | 
O=C(Cn1c(=O)c2ccc(F)cc2[s+]1[O-])Nc1ccccc1 (stereo unspecified) |  | 23.5 |  | 
O=C(Cn1sc2cc(F)ccc2c1=O)Nc1ccccc1Cl | 190 | 94 |  | 
O=C(Cn1sc2cc(F)ccc2c1=O)NCc1ccccc1 | 230 | 104 |  | 
O=C(Cn1sc2cc(C(F)(F)F)ccc2c1=O)Nc1ccccc1 | 524 | 100 |  | 
O=C(Cn1sc2cccc(F)c2c1=O)Nc1ccccc1 | 117 | 99.5 |  | Active
O=C(Cn1sc2ccc(F)cc2c1=O)Nc1ccccc1 | 287 | 99.7 |  | 
O=c1[nH]sc2cc(F)ccc12 | 2290 | 106 |  | 
COc1ccc(NC(=O)Cn2sc3cc(F)ccc3c2=O)cc1 | 300 | 99.3 |  | 
Nc1cccc2sn(CC(=O)Nc3ccccc3)c(=O)c12 | 1770 | 99.4 |  | 
O=C(Cn1sc2cc(F)ccc2c1=O)Nc1ccccc1 | 190 | 102 | 6400 | 
COc1cc(NC(=O)Cn2sc3cc(F)ccc3c2=O)cc(OC)c1 | 120 | 96.7 |  | 
O=C(Cn1sc2cc(F)ccc2c1=O)NCCc1ccccc1 | 388 | 100 |  | 
O=C(Cn1sc2c(C(F)(F)F)cccc2c1=O)Nc1ccccc1 |  | -7.6 |  | 
O=C(Cn1sc2ccccc2c1=O)Nc1ccccc1 | 165 | 99.7 |  | 
O=C(Cn1sc2c(F)cccc2c1=O)Nc1ccccc1 | 328 | 99.5 |  | 
O=C(Cn1sc2cc(F)ccc2c1=O)Nc1ccc(C(F)(F)F)cc1 | 210 | 100 |  | 
COc1ccccc1NC(=O)Cn1sc2cc(F)ccc2c1=O | 180 | 99.2 |  | 
COc1ccc2sn(CC(=O)Nc3ccccc3)c(=O)c2c1 | 153 | 99.7 |  | 
CC(=O)NCn1sc2cc(F)ccc2c1=O | 253 | 102 |  | 
